Measurements from patent publication US12251373B2, “Compounds and methods of treating retinal degeneration” (CASE WESTERN RESERVE UNIVERSITY, priority 2017, dated 2025).

What was measured:
rod opsin = target: T1, rod opsin (Bos taurus, UniProt P02699); assay: Raman spectroscopy of rod opsin crystal soaked with compound; assay type: binding, bovine; conditions: Raman difference spectrum, FIG. 4f
T1 construct: ROS membranes were isolated from bovine retinas under dim red light; from tissue; host or cells: bovine retina rod outer segment (ROS) membranes, bleached with hydroxylamine
Experimental: Bleached ROS membranes bearing opsin were solubilized with either 20 mM BTP, pH 7.5, or 50 mM MES, pH 6.4, together with 130 mM NaCl, 1 mM MgCl2, 10% sucrose, and 1% n-octyl-β-D-glucopyranoside (OG) for 1 h at 4° C. Insoluble debris was removed by centrifugation at 16,000 g for 5 min at 4° C. Crystallization screens were performed by the sparse matrix crystallization method based upon previously published crystallization conditions for rhodopsin and opsin. Each hanging drop was prepared by mixing equal volumes of solubilized opsin and a reservoir solution containing 3.0-3.6 M ammonium sulfate in 0.05-0.1 M sodium acetate buffer, pH 5.2-5.6. Crystals appeared within 2-5 days at 4° C. and were analyzed directly by Raman spectroscopy.
Here, we used Raman microscopy to test if YC-001 binds rod opsin in a single crystal. A rod opsin crystal was transferred into 4.5 μL of fresh reservoir solution on a siliconized glass coverslip and transferred into a hanging drop crystallization tray where the well contained 1 mL of the same solution. An 80 mW, 647.1 nm Kr^+ laser beam (Innova 70 C, Coherent, Palo Alto, CA, USA) was focused on the rod opsin crystal with a 20× objective. The Raman spectrum of the rod opsin crystal was accumulated over 100×1 s. […]

C57BL/6 mice = assay: Retinoid cycle analyses (11-cis-retinyl oxime after bleaching); assay type: in vivo, mouse; conditions: 200 mg kg−1 bw i.p., compared to DMSO
Experimental: To test if treatment with YC-001 affects visual pigment regeneration, we quantified the 11-cis-retinyl oxime extracted from retinas of C57BL/6 mice after different periods of dark adaptation following exposure to bright light. Mice at 6 weeks of age were administered YC-001 at 200 mg kg^−1 bw via i.p. injection. At 30 min following YC-001 administration, eyes were dilated with 1% tropicamide. Mice then were anesthetized with a cocktail containing 20 mg mL^−1 of ketamine and 1.75 mg mL^−1 of xylazine at a dose of 4 μL g^−1 bw. Anesthetized mice were exposed to bright light with an intensity of 10,000 lux for 10 min to bleach about 90% of the rhodopsin pigment. Mice then were returned to the dark for recovery. Animals then were euthanized at 0, 2, 4, 6 or 24 h after bleaching and recovery in the dark, and their eyes were removed and homogenized in 1 mL of 1:1 PBS:ethanol mixture (v/v) containing 40 mM hydroxylamine. […] 11-cis-Retinyl oxime released from the regenerated rhodopsin pigments were separated on an Agilent Sil column (5 μm, 4.6×250 mm) with an isocratic flow of 10% ethyl acetate in hexanes (1.5 mL min^−1) and detected at 325 nm. Amounts of 11-cis-retinyl oximes per eye were quantified by normalizing the peak area to an 11-cis-retinyl oxime standard. 11-cis-Retinyl oximes were quantified in three eye samples per condition, and the means and s.d.s were calculated.

T1 sequence (P02699 whole entry): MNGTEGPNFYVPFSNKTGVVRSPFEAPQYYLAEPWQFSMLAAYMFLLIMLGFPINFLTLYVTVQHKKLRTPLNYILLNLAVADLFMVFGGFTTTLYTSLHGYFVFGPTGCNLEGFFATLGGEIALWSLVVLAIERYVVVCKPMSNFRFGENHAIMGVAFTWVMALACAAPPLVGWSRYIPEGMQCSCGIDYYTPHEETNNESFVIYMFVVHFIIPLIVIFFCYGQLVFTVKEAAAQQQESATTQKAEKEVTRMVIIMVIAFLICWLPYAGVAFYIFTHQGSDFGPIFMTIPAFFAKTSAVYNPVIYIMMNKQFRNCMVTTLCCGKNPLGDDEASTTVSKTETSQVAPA

O=C1OCC(c2ccc(Cl)s2)=C1c1cccs1 [YC-001]
mode of binding to rod opsin (rod opsin): non-covalent binding | recovery of 11-cis-retinyl oxime after photobleaching (C57BL/6 mice): little difference
